Values quoted from earlier work as cited in patent publication US8951969B2, “Compositions and methods for treating centrally mediated nausea and vomiting” (Helsinn Healthcare S.A., priority 2009, dated 2015).

How the values were obtained:
[1] = tested on: nausea, moderately emetogenic chemotherapy; settings: cited from earlier work
[2] = tested on: nausea following moderately or highly emetogenic chemotherapy; settings: humans, compared to a 5-HT3 antagonist alone; cited from earlier work

## CC(=O)N1CCN([C@H]2CCN(C(=O)N(C)[C@H](C)c3cc(C(F)(F)F)cc(C(F)(F)F)c3)[C@@H](c3ccc(F)cc3C)C2)CC1 [casopitant, (2R,4S)-4-(4-acetytlpiperazin-1-yl)-N-{(1R)-1-[3,5-bis(trifluoromethyl)phenyl]ethyl}-2-(4-fluoro-2-methylphenyl)-N-methylpiperidine-1-carboxamide]
[1]; administered in response to moderately emetogenic chemotherapy
  effect against nausea: no statistically significant effect against nausea
[1]; moderately emetogenic chemotherapy
  side effect: induced nausea as a side effect

## C[C@@H](O[C@H]1OCCN(Cc2n[nH]c(=O)[nH]2)[C@H]1c1ccc(F)cc1)c1cc(C(F)(F)F)cc(C(F)(F)F)c1 [aprepitant]
[2]
  effect on incidence or severity of nausea: unable to induce a significant reduction in the incidence or severity of nausea
